Measurements taken from US10544143B2, “4-azaindole compounds” (BRISTOL-MYERS SQUIBB COMPANY, priority 2017, dated 2020).
pIC50: −log10 of the molar value. Like-named read-outs stand apart in the source and are kept apart here.

Experiments:
human TLR7 = human TLR7 (Homo sapiens (Human), UniProt Q9NYK1); assay: TLR7 inhibition reporter assay (HEK-Blue SEAP); assay type: cell-based
Protocol: (§1) HEK-Blue™-cells (Invivogen) overexpressing human TLR7, TLR8 or TLR9 receptors were used for screening inhibitors of these receptors using an inducible SEAP (secreted embryonic alkaline phosphatase) reporter gene under the control of the IFN-β minimal promoter fused to five NF-κB and AP-1-binding sites. Briefly, cells are seeded into Greiner 384 well plates (15000 cells per well for TLR7, 20,000 for TLR8 and 25,000 for TLR9) and then treated with test compounds in DMSO to yield a final dose response concentration range of 0.05 nM-50 μM. After a 30 minute compound pre-treatment at room temperature, the cells are then stimulated with a TLR7 ligand (gardiquimod at a final concentration of 7.5 μM), TLR8 ligand (R848 at a final concentration of 15.9 μM) or TLR9 ligand (ODN2006 at a final concentration of 5 nM) to activate NF-κB and AP-1 which induce the production of SEAP. After a 22 hour incubation at 37° C., 5% CO2, SEAP levels are determined with the addition of HEK-Blue™ Detection reagent (Invivogen), a cell culture medium that allows for detection of SEAP, according to manufacturer's specifications.

TLR7 = TLR7 (Mus musculus (Mouse), UniProt P58681); assay: In vivo mouse TLR7 PD model (gardiquimod challenge, plasma IL-6 and IFN-alpha); conditions: C57BL/6 mice, plasma 90 min after gardiquimod i.p., vs vehicle
Protocol: In Vivo Mouse TLR7 PD Model:
Adult male C57BL/6 mice were used for the experiments. Mice (7 to 10 per group) were randomized into different treatment groups based on body weight. Mice from the respective treatment groups were administered orally with vehicle or test compound. Thirty min after the oral administration of vehicle or test compound, mice were challenged with intraperitoneal injection of gardiquimod for TLR7 PD model. Ninety minutes after gardiquimod injection, mice were bled under isoflurane anaesthesia and plasma IL-6 and IFN-alpha levels were estimated by using commercially available ELISA kit (BD Biosciences, PBL Life Sciences). At the end of experiment, mean cytokine data was plotted and one way ANOVA with Dunnett's test was performed to calculate the significance of test compound treated group vs. vehicle control group. Percent inhibition of cytokine induction was calculated for test compound treated group vs vehicle control group.

human TLR8 = human TLR8 (Homo sapiens (Human), UniProt Q9NR97); assay: TLR8 inhibition reporter assay (HEK-Blue SEAP); conditions: read-out: TLR8 IC50;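 also: SEAP driven by IFN-β minimal promoter carrying NF-κB and AP-1 sites, compounds dosed 0.05 nM to 50 µM for 22 h, inhibition scaled between agonist-plus-DMSO and reference-inhibitor wells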
human TLR9 = human TLR9 (Homo sapiens (Human), UniProt Q9NR96); assay: TLR9 inhibition reporter assay (HEK-Blue SEAP); conditions: read-out: TLR9 IC50;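 also: SEAP driven by an IFN-β minimal promoter with NF-κB and AP-1 sites, read after 22 h, compounds dosed 0.05 nM–50 µM, inhibition scaled between agonist plus DMSO and reference-inhibitor wells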
Protocol: as §1

[1] = HEK-Blue cells overexpressing human TLR7, gardiquimod 7.5 μM stimulation, SEAP reporter
[2] = HEK-Blue cells overexpressing human TLR8, R848 15.9 μM stimulation, SEAP reporter
[3] = HEK-Blue cells overexpressing human TLR9, ODN2006 5 nM stimulation, SEAP reporter
[4] = HEK-Blue human TLR7 cells, gardiquimod 7.5 μM
[5] = HEK-Blue human TLR8 cells, R848 15.9 μM
[6] = HEK-Blue human TLR9 cells, ODN2006 5 nM

Sequence of human TLR9 (Q9NR96 26-1032): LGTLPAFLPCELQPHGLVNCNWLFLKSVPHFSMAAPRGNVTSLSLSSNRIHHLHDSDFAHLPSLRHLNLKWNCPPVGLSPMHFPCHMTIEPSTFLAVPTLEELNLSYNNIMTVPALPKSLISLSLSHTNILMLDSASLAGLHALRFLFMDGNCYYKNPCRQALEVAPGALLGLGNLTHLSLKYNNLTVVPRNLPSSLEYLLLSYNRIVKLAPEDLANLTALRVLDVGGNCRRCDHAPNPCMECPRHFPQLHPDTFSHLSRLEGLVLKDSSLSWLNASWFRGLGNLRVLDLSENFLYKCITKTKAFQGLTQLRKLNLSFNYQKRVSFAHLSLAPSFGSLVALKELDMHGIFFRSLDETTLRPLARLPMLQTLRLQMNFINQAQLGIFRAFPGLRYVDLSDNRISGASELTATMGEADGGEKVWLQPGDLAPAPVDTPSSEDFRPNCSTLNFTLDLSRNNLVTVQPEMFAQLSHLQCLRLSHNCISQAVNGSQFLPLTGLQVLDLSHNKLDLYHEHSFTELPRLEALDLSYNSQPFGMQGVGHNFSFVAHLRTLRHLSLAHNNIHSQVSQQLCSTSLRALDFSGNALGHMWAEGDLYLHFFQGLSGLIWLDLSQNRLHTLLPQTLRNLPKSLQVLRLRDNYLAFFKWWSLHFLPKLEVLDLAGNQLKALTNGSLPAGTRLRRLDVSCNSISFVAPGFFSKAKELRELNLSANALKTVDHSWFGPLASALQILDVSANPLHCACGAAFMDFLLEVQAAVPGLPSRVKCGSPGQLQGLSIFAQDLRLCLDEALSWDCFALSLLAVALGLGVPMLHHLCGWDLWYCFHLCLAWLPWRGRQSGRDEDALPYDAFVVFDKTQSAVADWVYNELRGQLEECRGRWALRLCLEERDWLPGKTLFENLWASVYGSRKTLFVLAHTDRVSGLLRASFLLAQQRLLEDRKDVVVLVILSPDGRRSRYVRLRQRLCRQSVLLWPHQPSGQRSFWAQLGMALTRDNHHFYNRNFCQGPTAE
Sequence of human TLR8 (Q9NR97 27-1041): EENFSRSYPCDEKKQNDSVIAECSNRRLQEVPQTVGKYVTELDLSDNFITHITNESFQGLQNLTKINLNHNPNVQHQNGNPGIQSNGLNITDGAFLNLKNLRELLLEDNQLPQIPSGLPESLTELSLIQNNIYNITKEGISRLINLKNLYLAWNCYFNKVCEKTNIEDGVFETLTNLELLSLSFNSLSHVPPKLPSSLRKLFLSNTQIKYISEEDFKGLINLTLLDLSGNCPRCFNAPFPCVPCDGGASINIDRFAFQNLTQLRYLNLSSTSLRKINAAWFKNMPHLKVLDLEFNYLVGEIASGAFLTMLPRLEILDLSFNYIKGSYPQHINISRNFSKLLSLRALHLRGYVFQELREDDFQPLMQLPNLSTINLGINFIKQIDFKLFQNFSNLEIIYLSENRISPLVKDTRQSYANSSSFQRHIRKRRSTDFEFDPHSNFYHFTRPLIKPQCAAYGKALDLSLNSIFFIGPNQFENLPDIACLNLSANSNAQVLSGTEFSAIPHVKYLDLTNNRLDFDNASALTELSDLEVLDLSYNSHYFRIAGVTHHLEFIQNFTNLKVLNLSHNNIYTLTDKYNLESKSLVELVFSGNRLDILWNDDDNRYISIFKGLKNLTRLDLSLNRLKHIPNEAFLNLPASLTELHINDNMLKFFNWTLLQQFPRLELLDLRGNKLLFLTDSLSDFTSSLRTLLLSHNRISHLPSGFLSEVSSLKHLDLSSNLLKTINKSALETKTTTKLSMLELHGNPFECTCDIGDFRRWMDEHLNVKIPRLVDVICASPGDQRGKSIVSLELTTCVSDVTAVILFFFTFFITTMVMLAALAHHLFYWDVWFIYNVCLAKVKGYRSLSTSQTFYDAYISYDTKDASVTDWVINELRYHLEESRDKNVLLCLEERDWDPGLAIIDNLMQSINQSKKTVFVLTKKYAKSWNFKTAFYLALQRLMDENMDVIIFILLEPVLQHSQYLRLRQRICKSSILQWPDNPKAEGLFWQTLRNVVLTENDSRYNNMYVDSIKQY
Sequence of human TLR7 (Q9NYK1 27-1049): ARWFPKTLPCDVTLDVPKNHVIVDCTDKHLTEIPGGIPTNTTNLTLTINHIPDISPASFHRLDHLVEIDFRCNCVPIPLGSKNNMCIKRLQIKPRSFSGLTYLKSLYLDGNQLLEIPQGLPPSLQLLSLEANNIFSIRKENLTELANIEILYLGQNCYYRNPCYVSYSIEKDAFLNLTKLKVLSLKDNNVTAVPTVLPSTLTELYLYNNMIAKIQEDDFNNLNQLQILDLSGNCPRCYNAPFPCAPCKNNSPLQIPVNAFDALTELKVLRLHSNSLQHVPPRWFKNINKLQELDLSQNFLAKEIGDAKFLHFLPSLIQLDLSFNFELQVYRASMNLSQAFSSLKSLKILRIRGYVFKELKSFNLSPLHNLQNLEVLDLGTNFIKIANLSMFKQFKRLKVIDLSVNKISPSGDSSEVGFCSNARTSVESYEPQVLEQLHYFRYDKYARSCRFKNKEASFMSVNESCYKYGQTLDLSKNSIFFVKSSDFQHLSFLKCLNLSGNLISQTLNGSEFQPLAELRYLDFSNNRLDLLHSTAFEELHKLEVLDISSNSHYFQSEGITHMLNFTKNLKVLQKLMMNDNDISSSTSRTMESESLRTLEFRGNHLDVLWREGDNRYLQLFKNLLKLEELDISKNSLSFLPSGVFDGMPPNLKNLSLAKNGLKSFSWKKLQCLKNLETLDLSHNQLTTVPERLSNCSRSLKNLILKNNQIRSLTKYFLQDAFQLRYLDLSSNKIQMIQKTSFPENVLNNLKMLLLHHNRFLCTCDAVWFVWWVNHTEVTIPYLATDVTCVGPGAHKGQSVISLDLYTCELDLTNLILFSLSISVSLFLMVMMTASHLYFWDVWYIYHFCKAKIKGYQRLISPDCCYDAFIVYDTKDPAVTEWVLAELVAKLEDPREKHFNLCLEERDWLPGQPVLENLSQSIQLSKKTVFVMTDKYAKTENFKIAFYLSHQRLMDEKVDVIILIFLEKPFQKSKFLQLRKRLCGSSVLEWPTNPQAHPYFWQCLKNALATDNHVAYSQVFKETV
Sequence of TLR7 (P58681 27-1050): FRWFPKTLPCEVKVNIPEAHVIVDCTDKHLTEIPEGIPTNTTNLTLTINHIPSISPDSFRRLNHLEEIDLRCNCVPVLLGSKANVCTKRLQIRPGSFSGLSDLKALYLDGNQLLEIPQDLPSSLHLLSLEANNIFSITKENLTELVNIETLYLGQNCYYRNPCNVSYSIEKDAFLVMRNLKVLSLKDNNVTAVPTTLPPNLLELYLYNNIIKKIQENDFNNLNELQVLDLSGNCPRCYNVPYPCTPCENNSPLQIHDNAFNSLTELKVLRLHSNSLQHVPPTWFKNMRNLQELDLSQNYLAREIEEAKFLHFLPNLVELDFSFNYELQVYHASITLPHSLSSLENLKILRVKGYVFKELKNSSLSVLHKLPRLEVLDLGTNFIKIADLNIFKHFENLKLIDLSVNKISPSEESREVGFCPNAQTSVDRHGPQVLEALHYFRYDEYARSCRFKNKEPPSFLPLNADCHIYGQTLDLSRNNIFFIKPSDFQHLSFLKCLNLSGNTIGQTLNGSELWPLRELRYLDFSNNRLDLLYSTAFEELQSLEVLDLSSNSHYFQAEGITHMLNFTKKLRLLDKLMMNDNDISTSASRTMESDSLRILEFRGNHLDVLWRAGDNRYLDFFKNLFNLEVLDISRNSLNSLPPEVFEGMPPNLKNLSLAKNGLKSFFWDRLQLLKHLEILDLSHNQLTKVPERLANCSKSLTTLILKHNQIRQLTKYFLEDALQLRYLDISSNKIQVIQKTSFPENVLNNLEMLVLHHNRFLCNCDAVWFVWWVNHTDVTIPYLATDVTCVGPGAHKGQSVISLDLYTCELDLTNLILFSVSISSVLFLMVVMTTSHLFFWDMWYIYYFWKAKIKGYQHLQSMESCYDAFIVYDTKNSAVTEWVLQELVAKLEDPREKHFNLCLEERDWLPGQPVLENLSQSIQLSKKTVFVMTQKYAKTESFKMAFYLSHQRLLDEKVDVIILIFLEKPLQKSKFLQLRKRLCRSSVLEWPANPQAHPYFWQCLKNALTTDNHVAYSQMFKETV

| SMILES | pIC50 (human TLR7; [4]) | pIC50 (human TLR8; [5]) | pIC50 (human TLR9; [6]) | further results |
| --- | --- | --- | --- | --- |
| Cc1c(-c2[nH]c3ccc(N4CCN(C(=O)CN(C)C)CC4)nc3c2C(C)C)cn2ncnc2c1C [Example 3, 1-(4-(2-(7,8-dimethyl-[1,2,4]triazolo[1,5-a]pyridin-6-yl)-3-isopropyl-1H-pyrrolo[3,2-b]pyridin-5-yl)piperazin-1-yl)-2-(dimethylamino)ethan-1-one] |  |  |  | pIC50 (human TLR7; [1]): 9.03; % inhibition of IFN-alpha (TLR7; 0.005 mg/kg oral): 29%; % inhibition of IL6 (TLR7; 0.005 mg/kg oral): 0%; % inhibition of IFN-alpha (TLR7; 0.01 mg/kg oral): 37%; % inhibition of IL6 (TLR7; 0.01 mg/kg oral): 24%; % inhibition of IFN-alpha (TLR7; 0.05 mg/kg oral): 94%; % inhibition of IL6 (TLR7; 0.05 mg/kg oral): 75%; % inhibition of IFN-alpha (TLR7; 0.25 mg/kg oral): 99%; % inhibition of IL6 (TLR7; 0.25 mg/kg oral): 90%; % inhibition of IFN-alpha (TLR7; 0.5 mg/kg oral): 100%; % inhibition of IL6 (TLR7; 0.5 mg/kg oral): 91%; pIC50 (human TLR8; [2]): 8.96; pIC50 (human TLR9; [3]): 5.07 |
| Cc1c(-c2[nH]c3ccc(C4CCC(NCC5(S(C)(=O)=O)CC5)CC4)nc3c2C(C)C)cn2ncnc2c1C (centres unmarked) [Example 4, 4-(2-(7,8-dimethyl-[1,2,4]triazolo[1,5-a]pyridin-6-yl)-3-isopropyl-1H-pyrrolo[3,2-b]pyridin-5-yl)-N-((1-(methylsulfonyl)cyclopropyl)methyl)cyclohexan-1-amine] |  |  |  | pIC50 (human TLR7; [1]): 9.22; % inhibition of IFN-alpha (TLR7; 0.0015 mg/kg oral): 0%; % inhibition of IL6 (TLR7; 0.0015 mg/kg oral): 0%; % inhibition of IFN-alpha (TLR7; 0.003 mg/kg oral): 33%; % inhibition of IL6 (TLR7; 0.003 mg/kg oral): 23%; % inhibition of IFN-alpha (TLR7; 0.015 mg/kg oral): 74%; % inhibition of IL6 (TLR7; 0.015 mg/kg oral): 75%; % inhibition of IFN-alpha (TLR7; 0.075 mg/kg oral): 93%; % inhibition of IL6 (TLR7; 0.075 mg/kg oral): 76%; % inhibition of IFN-alpha (TLR7; 0.15 mg/kg oral): 99%; % inhibition of IL6 (TLR7; 0.15 mg/kg oral): 95%; pIC50 (human TLR8; [2]): 9.15; pIC50 (human TLR9; [3]): 5.97 |
| Cc1c(-c2[nH]c3ccc(C4CCC(N5CCC(F)C5)CC4)nc3c2C(C)C)cn2ncnc2c1C (centres unmarked) [Example 1062] | 7.89 | 7.60 | 4.99 |  |
| Cc1c(-c2[nH]c3ccc(C4CCC(N5CCC6(COC6)C5)CC4)nc3c2C(C)C)cn2ncnc2c1C (centres unmarked) [Example 1063] | 8.00 | 7.74 | 5.09 |  |
| Cc1c(-c2[nH]c3ccc(C4CCC(N5CCOCC5)CC4)nc3c2C(C)C)cn2ncnc2c1C (centres unmarked) [Example 1064] | 9.47 | 9.02 | 5.61 |  |
| Cc1c(-c2[nH]c3ccc(C4CCC(N5CC6(CCOC6)C5)CC4)nc3c2C(C)C)cn2ncnc2c1C (centres unmarked) [Example 1065] | 8.96 | 8.96 | 5.55 |  |
| Cc1c(-c2[nH]c3ccc(C4CCC(N5CCC6(CCOC6)C5)CC4)nc3c2C(C)C)cn2ncnc2c1C (centres unmarked) [Example 1066] | 8.05 | 7.96 | 5.37 |  |
| COc1cc(-c2[nH]c3ccc(C4CCC(N5CCC(F)C5)CC4)nc3c2C(C)C)cn2ncnc12 (centres unmarked) [Example 1067] | 9.00 | 8.35 | 5.27 |  |
| COc1cc(-c2[nH]c3ccc(C4CCC(N5CCC6(COC6)C5)CC4)nc3c2C(C)C)cn2ncnc12 (centres unmarked) [Example 1068] | 9.06 | 8.74 | 5.53 |  |
| COc1cc(-c2[nH]c3ccc(C4CCC(N5CC6(CCOC6)C5)CC4)nc3c2C(C)C)cn2ncnc12 (centres unmarked) [Example 1069] | 10.05 | 9.77 | 6.13 |  |
| COc1cc(-c2[nH]c3ccc(C4CCC(N5CC6(CCOC6)C5)CC4)nc3c2C(C)C)cn2ncnc12 (centres unmarked) [Example 1070] | 9.27 | 9.14 | 6.07 |  |
| COc1cc(-c2[nH]c3ccc(C4CCC(N5CCOCC5)CC4)nc3c2C(C)C)cn2ncnc12 (centres unmarked) [Example 1071] | 8.43 | 7.60 | 5.23 |  |
| COc1cc(-c2[nH]c3ccc(C4CCC(N5CCC(F)C5)CC4)nc3c2C(C)C)cn2ncnc12 (centres unmarked) [Example 1072] | 8.54 | 7.46 | 5.23 |  |
| COc1cc(-c2[nH]c3ccc(C4CCC(N5CCC6(COC6)C5)CC4)nc3c2C(C)C)cn2ncnc12 (centres unmarked) [Example 1073] | 8.34 | 7.55 | 5.23 |  |
| COc1cc(-c2[nH]c3ccc(C4CCC(N5CC6(CCO6)C5)CC4)nc3c2C(C)C)cn2ncnc12 (centres unmarked) [Example 1074] | 9.23 | 8.72 | 5.67 |  |
| COc1cc(-c2[nH]c3ccc(C4CCC(N5CC6(CCO6)C5)CC4)nc3c2C(C)C)cn2ncnc12 (centres unmarked) [Example 1075] | 8.74 | 7.96 | 5.47 |  |
| Cc1c(-c2[nH]c3ccc(C4CCC(N5CC6(CCS6(=O)=O)C5)CC4)nc3c2C(C)C)cn2ncnc2c1C (centres unmarked) [Example 1076] | 8.80 | 8.74 | 4.98 |  |
| Cc1c(-c2[nH]c3ccc(C4CCC(N5CC6(CCS6(=O)=O)C5)CC4)nc3c2C(C)C)cn2ncnc2c1C (centres unmarked) [Example 1077] | 7.74 | 7.42 | 4.66 |  |
| CNC1CCC(c2ccc3[nH]c(-c4cn(C)c5ncncc45)c(C(C)C)c3n2)CC1 (centres unmarked) [Example 1078] | 8.01 | 6.67 | < 4.30 |  |
